Test results from ChEMBL document CHEMBL5053560, “Nanoparticular Inhibitors of Flavivirus Proteases from Zika, West Nile and Dengue Virus Are Cell-Permeable Antivirals” (ACS Med Chem Lett, 2021).

What was measured:
Genome polyprotein [1] = molecular target: T1, Genome polyprotein (dengue virus type 2, UniProt P29990); assay: Competitive inhibition of recombinant N-terminal His-tagged DENV NS2B-NS3 protease expressed in Escherichia coli BL21(DE3) using Boc-GRR-AMC as substrate measured by flourescence based plate reader assay
T1 sequence (P29990 1346-1475 limits assumed): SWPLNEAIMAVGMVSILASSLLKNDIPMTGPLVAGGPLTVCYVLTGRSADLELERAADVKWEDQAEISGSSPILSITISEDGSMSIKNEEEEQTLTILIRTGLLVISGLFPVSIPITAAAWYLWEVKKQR
T1 sequence (P29990 1476-2093 limits assumed): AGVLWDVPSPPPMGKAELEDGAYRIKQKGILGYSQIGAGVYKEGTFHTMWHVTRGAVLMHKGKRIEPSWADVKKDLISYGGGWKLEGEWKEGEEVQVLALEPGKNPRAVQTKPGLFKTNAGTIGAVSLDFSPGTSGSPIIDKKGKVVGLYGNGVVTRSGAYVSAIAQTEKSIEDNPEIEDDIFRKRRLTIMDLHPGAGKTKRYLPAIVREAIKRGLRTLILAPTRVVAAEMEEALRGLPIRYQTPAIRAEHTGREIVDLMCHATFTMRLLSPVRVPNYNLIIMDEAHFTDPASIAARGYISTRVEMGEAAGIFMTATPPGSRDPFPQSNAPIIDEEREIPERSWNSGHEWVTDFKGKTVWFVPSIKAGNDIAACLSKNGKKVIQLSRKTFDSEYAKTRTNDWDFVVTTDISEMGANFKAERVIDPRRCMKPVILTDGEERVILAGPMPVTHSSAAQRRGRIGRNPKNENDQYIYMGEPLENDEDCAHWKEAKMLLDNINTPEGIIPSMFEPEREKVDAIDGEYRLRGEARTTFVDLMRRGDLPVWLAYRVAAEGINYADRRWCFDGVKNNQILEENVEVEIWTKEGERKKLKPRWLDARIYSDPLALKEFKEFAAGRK

Genome polyprotein [2] = molecular target: T2, Genome polyprotein (West Nile virus, UniProt P06935); assay: Competitive inhibition of C-terminal His-tagged WNV NSB2 (52 to 96 amino acids)-NS3 (1 to 184 amino acids) protease expressed in Escherichia coli BL21(DE3) using Boc-GRK-AMC as substrate measured by flourescence based plate reader assay
T2 sequence (P06935 1371-1501 limits assumed): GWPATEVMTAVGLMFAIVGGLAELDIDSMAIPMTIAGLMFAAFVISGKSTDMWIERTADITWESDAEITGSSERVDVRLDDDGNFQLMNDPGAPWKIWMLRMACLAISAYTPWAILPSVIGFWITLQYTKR
T2 sequence (P06935 1502-2120 limits assumed): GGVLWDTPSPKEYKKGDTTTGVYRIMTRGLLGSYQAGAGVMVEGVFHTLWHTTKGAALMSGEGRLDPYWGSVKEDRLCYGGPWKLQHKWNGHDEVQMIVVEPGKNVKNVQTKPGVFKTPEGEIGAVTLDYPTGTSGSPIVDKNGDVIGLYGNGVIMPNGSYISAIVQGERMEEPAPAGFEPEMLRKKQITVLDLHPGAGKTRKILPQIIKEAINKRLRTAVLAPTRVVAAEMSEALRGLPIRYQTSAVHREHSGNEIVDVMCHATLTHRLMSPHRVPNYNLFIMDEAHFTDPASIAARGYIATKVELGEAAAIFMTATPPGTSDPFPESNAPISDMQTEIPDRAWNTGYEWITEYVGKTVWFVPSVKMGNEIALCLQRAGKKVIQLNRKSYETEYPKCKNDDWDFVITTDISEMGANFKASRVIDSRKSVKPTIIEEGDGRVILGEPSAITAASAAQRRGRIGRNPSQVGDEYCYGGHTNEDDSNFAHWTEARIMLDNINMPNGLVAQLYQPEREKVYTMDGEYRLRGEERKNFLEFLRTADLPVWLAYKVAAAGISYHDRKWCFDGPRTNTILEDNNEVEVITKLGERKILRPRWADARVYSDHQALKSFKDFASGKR

Genome polyprotein [3] = molecular target: T1, Genome polyprotein; assay: Inhibition of recombinant N-terminal His-tagged DENV NS2B-NS3 protease expressed in Escherichia coli BL21(DE3) using Boc-GRR-AMC as substrate measured by flourescence based plate reader assay
Genome polyprotein [4] = molecular target: T2, Genome polyprotein; assay: Inhibition of C-terminal His-tagged WNV NSB2 (52 to 96 amino acids)-NS3 (1 to 184 amino acids) protease expressed in Escherichia coli BL21(DE3) using Boc-GRK-AMC as substrate measured by flourescence based plate reader assay
Nonstructural protein 3 [5] = molecular target: T3, Nonstructural protein 3 (Zika virus, UniProt A0A024AXB9); assay: Competitive inhibition of C-terminal His-tagged ZIKV NSB2 (52 to 96 amino acids)-NS3 (1 to 184 amino acids) protease expressed in Escherichia coli BL21(DE3) preincubated for 10 mins followed by addition of Boc-GKR-AMC substrate and measured by flourescence based plate reader assay
T3 sequence (A0A024AXB9 whole entry, the tested form may be a part): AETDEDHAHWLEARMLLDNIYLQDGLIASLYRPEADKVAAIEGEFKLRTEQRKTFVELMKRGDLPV

Nonstructural protein 3 [6] = molecular target: T3, Nonstructural protein 3; assay: Inhibition of C-terminal His-tagged ZIKV NSB2 (52 to 96 amino acids)-NS3 (1 to 184 amino acids) protease expressed in Escherichia coli BL21(DE3) preincubated for 10 mins followed by addition of Boc-GKR-AMC substrate and measured by flourescence based plate reader assay
Zika virus = assay: Antiviral activity against Zika virus infected in human Huh-7 cells assessed as inhibition of viral replication at 12.5 uM measured after 48 hrs by Renilla reporter based luciferase assay relative to control; type: functional
West Nile virus = assay: Antiviral activity against West Nile virus infected in human Huh-7 cells assessed as inhibition of viral replication at 12.5 uM measured after 48 hrs by plaque assay relative to control; type: functional

| SMILES | Ki (Genome polyprotein [1]) | Ki (Genome polyprotein [2]) | IC50 (Genome polyprotein [3]) | IC50 (Genome polyprotein [4]) | Ki (Nonstructural protein 3 [5]) | IC50 (Nonstructural protein 3 [6]) | inhibition at 12.5 µM (Zika virus) | inhibition at 12.5 µM (West Nile virus) |
| --- | --- | --- | --- | --- | --- | --- | --- | --- |
| N=C(N)N[C@H]1CC[C@H](CNC(=O)[C@H](CCCCN)NC(=O)[C@H](CCCCN)NC(=O)Cc2ccc(OCCCCS)cc2)CC1 | 12700 nM | 343 nM | 17100 nM | 460 nM | 79 nM | 125 nM | – | – |
| NC(=O)c1ncn([C@@H]2O[C@H](CO)[C@@H](O)[C@H]2O)n1 [RIBAVIRIN] | – | – | – | – | – | – | 80% | 90% |
